Each compound was assayed on IL-1β release from THP-1 cells (assay: IL-1β Release Assay (Alternate Method), THP-1 cells). Settings: Homo sapiens, THP-1, read-out: IL-1β % inhibition.
Assay type: cell-based, human
Method in brief: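 THP-1 cells differentiated 16 h with 100 ng/mL LPS plus 100 ng/mL IFN-γ, reprimed 2 h with 100 ng/mL LPS, pretreated 30 min with compound, then challenged 45 min with 250 uM BzATP (final). Supernatant IL-1β quantified by ELISA; percent inhibition from background-adjusted levels versus untreated cells.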

Compound	inhibition at 0.3 µM
O=C(Nc1ncnc2c1CCN(Cc1ccccc1)C2)C12CC3CC(CC(C3)C1)C2 [Compound 334, Adamantane-1-carboxylic acid(7-benzyl-5,6,7,8-tetrahydro-pyrido[3,4-d]pyrimidin-4-yl)-amide]	50 to 75%

Same assay, conditions: Homo sapiens; at 0.3 μM; THP-1 cells; read-out: IL-1β % inhibition

Compound	inhibition at 0.3 µM
Cc1ncc2c(c1C(=O)NCC13CC4CC(CC(C4)C1)C3)CCN(Cc1ccccc1)C2 [Compound 368, 7-Benzyl-3-methyl-5,6,7,8-tetrahydro-[2,7]naphthyridine-4carboxylic acid (adamantan-1-ylmethyl)-amide]	0 to 25%
O=C(c1ccccc1)N1CCc2c(ncnc2NC(=O)C23CC4CC(CC(C4)C2)C3)C1 [Compound 394]	25 to 50%

Same assay, conditions: at 0.3 μM; THP-1 cells

Compound	IL-1β % inhibition
O=C(c1ccc(F)c(F)c1)N1CCc2c(ncnc2NC(=O)C23CC4CC(CC(C4)C2)C3)C1 [Compound 405]	++ (compound exhibited 25-50% inhibition at 0.3 μM)
O=C(CC1CCCCCC1)Nc1ncnc2c1CCN(Cc1ccc(F)cc1)C2 [Compound 130]	+ (compound exhibited 0-25% inhibition at 0.3 μM)
O=C(CC12CC3CC(CC(C3)C1)C2)Nc1ncnc2c1CCN(S(=O)(=O)c1ccc(F)cc1)C2 [Compound 152]	+ (compound exhibited 0-25% inhibition at 0.3 μM)
O=C(CC12CC3CC(CC(C3)C1)C2)Nc1ncnc2c1CCN(C(=O)c1ccc3ccccc3c1)C2 [Compound 290]	++++ (compound exhibited 75% or greater inhibition at 0.3 μM)
CC12CC3CC(C)(C1)CC(CC(=O)Nc1ncnc4c1CCN(S(=O)(=O)Cc1ccc(Cl)c(Cl)c1)C4)(C3)C2 [Compound 378]	+++ (compound exhibited 50-75% inhibition at 0.3 μM)
O=C(CC12CC3CC(CC(C3)C1)C2)Nc1ncnc2c1CCN(C(=O)c1cccc(F)c1)C2 [Compound 227]	+ (compound exhibited 0-25% inhibition at 0.3 μM)
O=C(c1cccc(F)c1)N1CCc2c(ncnc2NC(=O)C23CC4CC(CC(C4)C2)C3)C1 [Compound 400]	+ (compound exhibited 0-25% inhibition at 0.3 μM)
CC(C)(C(=O)Nc1ncnc2c1CCN(C(=O)c1cc(F)ccc1F)C2)C12CC3CC(CC(C3)C1)C2 [Compound 363]	+ (compound exhibited 0-25% inhibition at 0.3 μM)
O=C(CC12CC3CC(CC(C3)C1)C2)Nc1ncnc2c1CCN(Cc1ccc3cc[nH]c3c1)C2 [Compound 332]	+++ (compound exhibited 50-75% inhibition at 0.3 μM)
O=C(NCC12CC3CC(CC(C3)C1)C2)c1ncnc2c1CCN(Cc1cccc(F)c1)C2 [Compound 316]	+ (compound exhibited 0-25% inhibition at 0.3 μM)
O=C(CC12CC3CC(CC(C3)C1)C2)Nc1ncnc2c1CCN(C(=O)COCc1ccccc1)C2 [Compound 256]	+++ (compound exhibited 50-75% inhibition at 0.3 μM)
O=C(CC12CC3CC(CC(C3)C1)C2)Nc1ncnc2c1CCN(S(=O)(=O)c1c(Cl)cccc1Cl)C2 [Compound 210]	+ (compound exhibited 0-25% inhibition at 0.3 μM)
CC12CC3CC(C)(C1)CC(CC(=O)Nc1ncnc4c1CCN(Cc1ccccc1Cl)C4)(C3)C2 [Compound 370]	++ (compound exhibited 25-50% inhibition at 0.3 μM)
Cc1cccc(C(=O)N2CCc3c(ncnc3NC(=O)C(C)(C)C34CC5CC(CC(C5)C3)C4)C2)c1 [Compound 358]	+ (compound exhibited 0-25% inhibition at 0.3 μM)
Cc1ccccc1CN1CCc2c(ncnc2NC(=O)CC23CC4CC(CC(C4)C2)C3)C1 [Compound 31]	+++ (compound exhibited 50-75% inhibition at 0.3 μM)
O=C(CC12CC3CC(CC(C3)C1)C2)Nc1ncnc2c1CCN(S(=O)(=O)c1ccc(OC(F)F)cc1)C2 [Compound 190]	+++ (compound exhibited 50-75% inhibition at 0.3 μM)
Cc1cccc(CN2CCc3c(ncnc3NC(=O)CC34CC5CC(CC(C5)C3)C4)C2)c1 [Compound 38]	+ (compound exhibited 0-25% inhibition at 0.3 μM)
CC12CC3CC(C)(C1)CC(CC(=O)Nc1ncnc4c1CCN(C(=O)c1cc(F)ccc1F)C4)(C3)C2 [Compound 390]	+ (compound exhibited 0-25% inhibition at 0.3 μM)
O=C(CC12CC3CC(CC(C3)C1)C2)Nc1ncnc2c1CCN(Cc1ccc(C(F)(F)F)c(F)c1)C2 [Compound 97]	++ (compound exhibited 25-50% inhibition at 0.3 μM)
N#Cc1cccc(C(=O)N2CCc3c(ncnc3NC(=O)CC34CC5CC(CC(C5)C3)C4)C2)c1 [Compound 242]	+++ (compound exhibited 50-75% inhibition at 0.3 μM)
Cc1ccc(F)c(CN2CCc3c(ncnc3NC(=O)CC34CC5CC(CC(C5)C3)C4)C2)c1Cl [Compound 88]	+++ (compound exhibited 50-75% inhibition at 0.3 μM)
O=C(CC12CC3CC(CC(C3)C1)C2)Nc1ncnc2c1CCN(Cc1ccc(Cl)cc1Cl)C2 [Compound 319]	+ (compound exhibited 0-25% inhibition at 0.3 μM)
O=C(CC12CC3CC(CC(C3)C1)C2)Nc1ncnc2c1CCN(Cc1cccc(C(F)(F)F)c1F)C2 [Compound 131]	+ (compound exhibited 0-25% inhibition at 0.3 μM)
O=C(CC12CC3CC(CC(C3)C1)C2)Nc1ncnc2c1CCN(C(=O)c1cccnc1)C2 [Compound 237]	+ (compound exhibited 0-25% inhibition at 0.3 μM)
COc1ccc(F)c(CN2CCc3c(ncnc3NC(=O)CC34CC5CC(CC(C5)C3)C4)C2)c1 [Compound 104]	+++ (compound exhibited 50-75% inhibition at 0.3 μM)
O=C(CC12CC3CC(CC(C3)C1)C2)Nc1ncnc2c1CCN(S(=O)(=O)Cc1cccc(C(F)(F)F)c1)C2 [Compound 187]	++++ (compound exhibited 75% or greater inhibition at 0.3 μM)
COc1ccc(CN2CCc3c(ncnc3C(=O)NCC3CCCCC3)C2)cc1 [Compound 54]	+ (compound exhibited 0-25% inhibition at 0.3 μM)
O=C(CC12CC3CC(CC(C3)C1)C2)Nc1ncnc2c1CCN(S(=O)(=O)c1cc(Cl)ccc1Cl)C2 [Compound 204]	+ (compound exhibited 0-25% inhibition at 0.3 μM)
O=C(CC12CC3CC(CC(C3)C1)C2)Nc1ncnc2c1CCN(C(=O)c1c(F)cccc1Cl)C2 [Compound 272]	++++ (compound exhibited 75% or greater inhibition at 0.3 μM)

Same assay, conditions: at 0.3 μM; THP-1 cells, BzATP-stimulated

Compound	IL-1β % inhibition
COc1ccc(CN2CCc3c(ncnc3NC(=O)C34CC5CC(CC(C5)C3)C4)C2)cc1OC [Compound 566]	+ (compound exhibited 0-25% inhibition at 0.3 μM)
O=C(Nc1ncnc2c1CCN(S(=O)(=O)c1cccc(C(F)(F)F)c1)C2)C12CC3CC(CC(C3)C1)C2 [Compound 492]	+++ (compound exhibited 50-75% inhibition at 0.3 μM)
O=C(Nc1ncnc2c1CCN(Cc1ccc3ccccc3c1)C2)C12CC3CC(CC(C3)C1)C2 [Compound 565]	++++ (compound exhibited 75% or greater inhibition at 0.3 μM)
O=C(Nc1ncnc2c1CCN(CCCc1ccccc1)C2)C12CC3CC(CC(C3)C1)C2 [Compound 559]	++ (compound exhibited 25-50% inhibition at 0.3 μM)
COc1cccc(C(=O)N2CCc3c(ncnc3NC(=O)C34CC5CC(CC(C5)C3)C4)C2)c1 [Compound 422]	++ (compound exhibited 25-50% inhibition at 0.3 μM)
CCCN1CCc2c(ncnc2NC(=O)C23CC4CC(CC(C4)C2)C3)C1 [Compound 555]	+ (compound exhibited 0-25% inhibition at 0.3 μM)
N#Cc1ccc(CN2CCc3c(ncnc3NC(=O)C34CC5CC(CC(C5)C3)C4)C2)cc1 [Compound 603]	+ (compound exhibited 0-25% inhibition at 0.3 μM)
